Results taken from PubChem BioAssay (NCI).
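48-hour exposure; five concentrations; linearly interpolated endpoints. TGI marks complete inhibition of growth.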

Assays:
Assay in all cases: NCI-60 cell line screen, 48 h
[1] = test system: 786-0 renal
[2] = test system: A498 renal
[3] = test system: A549 NSCLC
[4] = test system: ACHN renal
[5] = test system: CAKI-1 renal
[6] = test system: CCRF-CEM leukemia
[7] = test system: COLO 205 colon
[8] = test system: DLD-1 colon
[9] = test system: DMS 114 small cell lung
[10] = test system: EKVX NSCLC
[11] = test system: HCC-2998 colon
[12] = test system: HOP-62 NSCLC
[13] = test system: HT29 colon
[14] = test system: IGROV1 ovarian
[15] = test system: K-562 leukemia
[16] = test system: KM12 colon
[17] = test system: KM20L2 colon
[18] = test system: LXFL 529 NSCLC
[19] = test system: M14 melanoma
[20] = test system: M19-MEL melanoma
[21] = test system: MALME-3M melanoma
[22] = test system: MOLT-4 leukemia
[23] = test system: NCI-H23 lung
[24] = test system: NCI-H460 lung
[25] = test system: NCI-H522 lung
[26] = test system: OVCAR-3 ovarian
[27] = test system: OVCAR-4 ovarian
[28] = test system: OVCAR-5 ovarian
[29] = test system: OVCAR-8 ovarian
[30] = test system: RPMI-8226 leukemia
[31] = test system: SF-268 CNS
[32] = test system: SF-295 CNS
[33] = test system: SK-MEL-2 melanoma
[34] = test system: SK-MEL-28 melanoma
[35] = test system: SK-MEL-5 melanoma
[36] = test system: SK-OV-3 ovarian
[37] = test system: SN12C renal
[38] = test system: SNB-75 CNS
[39] = test system: SNB-78 CNS
[40] = test system: SW-620 colon
[41] = test system: TK-10 renal
[42] = test system: U251 CNS
[43] = test system: UACC-257 melanoma
[44] = test system: UACC-62 melanoma
[45] = test system: UO-31 renal
[46] = test system: XF 498 CNS
[47] = test system: DMS 273 small cell lung
[48] = test system: HCT-15 colon
[49] = test system: HL-60(TB) leukemia
[50] = test system: HOP-18 NSCLC
[51] = test system: HOP-92 NSCLC
[52] = test system: LOX IMVI melanoma
[53] = test system: NCI-H226 lung
[54] = test system: RXF 393 renal
[55] = test system: SF-539 CNS
[56] = test system: SNB-19 CNS

## COc1cc2cccc(N=Cc3cccc(OC)c3OC(C)C)c2cc1OC
[1]
  TGI: 37.8 µM
[2]
  TGI: > 100 µM
[3]
  TGI: 86.5 µM
[4]
  TGI: > 100 µM
[5]
  TGI: 42.9 µM
[6]
  TGI: > 100 µM
[7]
  TGI: > 100 µM
[8]
  TGI: 70 µM
[9]
  TGI: 38.7 µM
[10]
  TGI: > 100 µM
[11]
  TGI: > 100 µM
[12]
  TGI: 80.3 µM
[13]
  TGI: 50.2 µM
[14]
  TGI: 70.2 µM
[15]
  TGI: 89 µM
[16]
  TGI: 57.2 µM
[17]
  TGI: > 100 µM
[18]
  TGI: 31.1 µM
[19]
  TGI: 35.9 µM
[20]
  TGI: 48.2 µM
[21]
  TGI: 59.8 µM
[22]
  TGI: 69.5 µM
[23]
  TGI: 57.2 µM
[24]
  TGI: > 100 µM
[25]
  TGI: 39.7 µM
[26]
  TGI: 41 µM
[27]
  TGI: 52.4 µM
[28]
  TGI: > 100 µM
[29]
  TGI: 53.1 µM
[30]
  TGI: 37.7 µM
[31]
  TGI: 91.4 µM
[32]
  TGI: 41.2 µM
[33]
  TGI: 48.6 µM
[34]
  TGI: 66.9 µM
[35]
  TGI: 53.9 µM
[36]
  TGI: 73 µM
[37]
  TGI: > 100 µM
[38]
  TGI: 49 µM
[39]
  TGI: > 100 µM
[40]
  TGI: 48.8 µM
[41]
  TGI: 59 µM
[42]
  TGI: 49.9 µM
[43]
  TGI: 52.4 µM
[44]
  TGI: 45.6 µM
[45]
  TGI: > 100 µM
[46]
  TGI: 55.4 µM

## C=CCNC(=O)N(CCC)CCCCC(NC(C)=O)C(=O)NCc1ccccc1 (stereo not given)
[1]
  TGI: > 100 µM
[2]
  TGI: > 100 µM
[3]
  TGI: > 100 µM
[4]
  TGI: > 100 µM
[5]
  TGI: > 100 µM
[6]
  TGI: > 100 µM
[7]
  TGI: > 100 µM
[9]
  TGI: > 100 µM
[47]
  TGI: > 100 µM
[10]
  TGI: > 100 µM
[11]
  TGI: > 100 µM
[48]
  TGI: > 100 µM
[49]
  TGI: > 100 µM
[50]
  TGI: > 100 µM
[12]
  TGI: > 100 µM
[51]
  TGI: > 100 µM
[13]
  TGI: > 100 µM
[14]
  TGI: > 100 µM
[15]
  TGI: > 100 µM
[16]
  TGI: > 100 µM
[17]
  TGI: > 100 µM
[52]
  TGI: > 100 µM
[18]
  TGI: > 100 µM
[19]
  TGI: > 100 µM
[20]
  TGI: > 100 µM
[21]
  TGI: > 100 µM
[22]
  TGI: > 100 µM
[53]
  TGI: > 100 µM
[23]
  TGI: > 100 µM
[24]
  TGI: > 100 µM
[25]
  TGI: > 100 µM
[26]
  TGI: > 100 µM
[27]
  TGI: > 100 µM
[28]
  TGI: > 100 µM
[29]
  TGI: > 100 µM
[30]
  TGI: > 100 µM
[54]
  TGI: > 100 µM
[31]
  TGI: > 100 µM
[32]
  TGI: > 100 µM
[55]
  TGI: > 100 µM
[33]
  TGI: > 100 µM
[34]
  TGI: > 100 µM
[35]
  TGI: > 100 µM
[36]
  TGI: > 100 µM
[37]
  TGI: > 100 µM
[56]
  TGI: > 100 µM
[38]
  TGI: > 100 µM
[40]
  TGI: > 100 µM
[41]
  TGI: > 100 µM
[42]
  TGI: > 100 µM
[43]
  TGI: > 100 µM
[44]
  TGI: > 100 µM
[45]
  TGI: > 100 µM
[46]
  TGI: > 100 µM
